Reference: patent US6143722A, “Heptapeptide oxytocin analogues” (Ferring, B.V., priority 1996, dated 2000)
Like-named read-outs stand apart in the source and are kept apart here. *1 amine or outer side, *2 acyl side, *3 side chain or, on linkers, in order; H or OH if unused. Where a SMILES comes first, the peptide text is derived from it. Bridges are numbered along the chain shown (N, C = ends). [ ]: non-standard residue; d: D form. ξ: configuration not given here. d2Nal = N[C@H](Cc1ccc2ccccc2c1)C(=O)O; aIle = CC[C@@H](C)[C@H](N)C(=O)O; hCys = N[C@@H](CCS)C(=O)O; ξNMeOrn = CNC(CCCN)C(=O)O; X1 = O=C(CC[*:2])[*:1]

Legend:
[1] = pH 4.5
Description: (§1) Solutions of the heptapeptide analogues of the present invention were prepared with compositions representative of aqueous formulations. The solutions were stored for several weeks at 50° C. and aliquots were withdrawn periodically for analysis by HPLC. Reference peptides were studied in parallel. Degradation was determined as the loss of peptide (% by weight per week), independent of the nature of the decomposition products.

[2] = biological target: T1, Recombinant human oxytocin receptors (Homo sapiens, UniProt P30559); assay: Oxytocin receptor binding assay ([125I]-oxytocin, membrane fraction); conditions: recombinant human oxytocin receptors expressed in CHO or HEK293 cells, mean ± SEM
T1 construct: expressed in transfected cells; host or cells: CHO or HEK293 cells (membrane fraction)
T1 sequence (P30559 1-389): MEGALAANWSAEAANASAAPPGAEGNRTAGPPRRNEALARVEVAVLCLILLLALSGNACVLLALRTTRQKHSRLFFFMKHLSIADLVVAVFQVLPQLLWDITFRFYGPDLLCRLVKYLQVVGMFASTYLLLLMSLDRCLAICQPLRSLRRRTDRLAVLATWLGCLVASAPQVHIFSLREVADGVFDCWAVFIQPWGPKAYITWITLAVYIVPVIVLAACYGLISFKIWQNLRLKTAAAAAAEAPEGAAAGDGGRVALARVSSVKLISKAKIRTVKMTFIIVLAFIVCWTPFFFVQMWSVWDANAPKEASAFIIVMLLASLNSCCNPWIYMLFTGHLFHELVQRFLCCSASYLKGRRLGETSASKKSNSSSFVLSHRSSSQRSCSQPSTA
Description: i) Oxytocin receptor binding assay
Recombinant human oxytocin receptors were expressed in either CHO or HEK293 cells using standard molecular biological techniques. A membrane fraction was prepared and incubated in the presence of [^125 I]-oxytocin and varying concentrations of heptapeptide analogue. Membranes were then isolated by filtration and counted for radioactivity to determine oxytocin binding. An inhibition constant Ki was determined for the analogue.

myometrium = type: in vivo, Sprague Dawley rats; conditions: for ID50, rat model: in vivo
Description: Sprague Dawley rats (ca. 250 g) in natural estrus were anaesthetised with Inactin (0.5 mg/100 g body weight, i.p.). The activity of the myometrium was measured with the aid of a catheter fixed in the uterine cavity and filled with modified Lockes solution. The catheter was connected to a Statham P23D force transducer and the contractions were recorded on a Grass polygraph (model 7D).
The dose-response curve for oxytocin (2×10^-4 -5×10^-3 μmol/kg) was recorded. In this case the response was quantified by integration of the curve during the 15 minutes following agonist injection. A dose of oxytocin giving an effect corresponding to an intralumenar contraction pressure of 10-30 mm Hg and within the linear section of the curve was selected. This dose of oxytocin was administered to the animal in conjunction with at least two different doses of antagonist and the effect was recorded. The dose of antagonist which reduces the effect of the agonist to 50% of tis control value was determined by interpolation and is given here as an ID50 value. [ID50 value=dose of antagonist required to reduce the effect of a given agonist dose by 50%].
The duration of action of the antagonists was also determined in this model. An oxytocin dose was selected (2×10^-4 -5×10^-3μmol/kg) giving an effect corresponding to half the maximum effect (this dose is the ED50). The effect determined here is the same as for the ID50 determination defined above. An antagonist dose was selected (8×10^-4 -4×10^-3 μmol/kg) so as to give at least 50% inhibition of the response to the agonist. At the beginning of the experiment, single doses of the agonist and antagonist were co-administered. At 20 minute intervals thereafter, doses of the agonist alone were administered and the response was measured. […] [t75 value=time period required for the effectiveness of a single dose to decline by 75%].

[3] = test system: Uterus muscle tissue from women in late pregnancy; assay: Antagonist effect in vitro in a human uterus model (oxytocin-induced contraction of uterus muscle strips); type: cell-based; conditions: concentration of antagonist reducing the oxytocin response to 50% of control; isolated human uterus strips
Description: ii) Antagonist effect in vitro in a human uterus model
Uterus muscle tissue from women in late pregnancy undergoing Caesarean section was cut into strips which were mounted in a tissue bath filled with Krebs-Ringer buffer and oxygenated with carbogen (95% O2 +5% CO2) gas. Changes in isometric muscle tension detected with a tension transducer were recorded on a Grass polygraph.
The concentration-effect curve of oxytocin was recorded. The effect measured in this case corresponds to the net value of the integrated contraction curve during the 10 minute period following agonist (i.e. oxytocin) administration. A concentration of oxytocin giving at least half-maximal response was selected. This concentration of agonist was administered to the tissue in the presence of different concentrations of antagonist heptapeptide analogue and the response was recorded. The concentration of antagonist required to reduce the response to 50% of its control value was determined by regression analysis and is given here as an IC50 value. [IC50 value=concentration of antagonist required to reduce the effect of a given agonist dose by 50%].

[4] = Evaluation of stability in aqueous solution (HPLC); conditions: Isotonic citrate/phosphate buffer, pH 4.5; stored at 50° C.; loss of peptide by HPLC
Description: as §1

SMILES | Degradation at 50° C. (wt %/week) [1] | Ki [2] | Degradation at 50° C. (wt %/week) [4] | also measured
CC[C@H](C)[C@@H]1NC(=O)[C@@H](Cc2c[nH]c3ccccc23)NC(=O)CCSCC[C@@H](C(=O)N(C)[C@H](CO)CCCN)NC(=O)[C@H](CC(N)=O)NC(=O)[C@H](C(C)C)NC1=O [III] | 0.7 wt %/week | 0.8 ± 0.3 nM |  | 
CC[C@H](C)[C@@H]1NC(=O)[C@@H](Cc2c[nH]c3ccccc23)NC(=O)CCSCC[C@@H](C(=O)N(C)[C@H](CO)CCCN)NC(=O)[C@H](CC(N)=O)NC(=O)[C@H](CC(C)C)NC1=O [II] |  | 3.2 ± 0.75 nM |  | 
CC[C@H](C)[C@@H]1NC(=O)[C@@H](Cc2c[nH]c3ccccc23)NC(=O)CCSCC[C@@H](C(=O)N(C)[C@H](CO)CCCN)NC(=O)[C@H](CC(N)=O)NC(=O)[C@H](CC2CCCCC2)NC1=O [IV] |  | 7 ± 1.85 nM |  | 
CC[C@@H](C)[C@@H]1NC(=O)[C@H]([C@@H](C)CC)NC(=O)[C@@H](Cc2c[nH]c3ccccc23)NC(=O)CCSCC[C@@H](C(=O)N(C)[C@H](CO)CCCN)NC(=O)[C@H](CC(N)=O)NC1=O [Peptide I] | 0.4 wt %/week | 0.25 ± 0.16 nM |  | t75, rat model (myometrium; duration of action: time for the effectiveness of a single dose to decline by 75%, antagonist dose 8×10^-4 -4×10^-3 μmol/kg): 169 ± 2 min; ID50, rat model (myometrium): 2.9 ± 0.3 nmol/kg; IC50 [3]: 5 ± 1 nM
CCC(CC)[C@@H]1NC(=O)[C@H]([C@@H](C)CC)NC(=O)[C@@H](Cc2c[nH]c3ccccc23)NC(=O)CCSCC[C@@H](C(=O)N(C)[C@H](CO)CCCN)NC(=O)[C@H](CC(N)=O)NC1=O [VII] |  | 2.4 ± 0.85 nM |  | 
CC[C@@H](C)[C@@H]1NC(=O)[C@H]([C@@H](C)CC)NC(=O)[C@@H](Cc2ccc3ccccc3c2)NC(=O)CCSCC[C@@H](C(=O)N(C)[C@H](CO)CCCN)NC(=O)[C@H](CC(N)=O)NC1=O [VI] | 1.2 wt %/week | 0.1 nM |  | 
CC[C@H](C)[C@@H]1NC(=O)[C@H]([C@@H](C)CC)NC(=O)[C@@H](Cc2c[nH]c3ccccc23)NC(=O)CCSCC[C@@H](C(=O)N(C)[C@H](CO)CCCN)NC(=O)[C@H](CC(N)=O)NC1=O [V] |  | 1.4 ± 0.15 nM |  | 
CC[C@@H](C)[C@@H]1NC(=O)[C@H]([C@@H](C)CC)NC(=O)[C@@H](Cc2c[nH]c3ccccc23)NC(=O)CCSCC[C@@H](C(=O)N(C)C(CCCN)C(N)=O)NC(=O)[C@H](CC(N)=O)NC1=O (some centres unmarked) [r-IX, reference compound] ([dW]I[aIle]N[hCys][ξNMeOrn]-NH2; linker N-5 via X1) |  |  | 2.9 wt %/week | ID50, rat model (myometrium): 2.9 ± 0.3 nmol/kg
CC[C@@H](C)[C@@H]1NC(=O)[C@H]([C@@H](C)CC)NC(=O)[C@@H](Cc2ccc3ccccc3c2)NC(=O)CCSCC[C@@H](C(=O)N(C)C(CCCN)C(N)=O)NC(=O)[C@H](CC(N)=O)NC1=O (some centres unmarked) [r-XI] ([d2Nal]I[aIle]N[hCys][ξNMeOrn]-NH2; linker N-5 via X1) |  |  | 4.0 wt %/week | 
CC[C@H](C)[C@@H]1NC(=O)[C@@H](Cc2c[nH]c3ccccc23)NC(=O)CCSCC[C@@H](C(=O)N(C)C(CCCN)C(N)=O)NC(=O)[C@H](CC(N)=O)NC(=O)[C@H](C(C)C)NC1=O (some centres unmarked) [r-X] ([dW]IVN[hCys][ξNMeOrn]-NH2; linker N-5 via X1) |  |  | 4.3 wt %/week | 
